SMILES strings stand for the structures.

The results in this text go back to patent EP4741389A1, “KAT6 INHIBITOR” (Shanghai Qilu Pharmaceutical Research and Development …, priority 2023, dated 2025).

One experiment relates to ZR-75-1 cells. As to the kind of experiment: ZR-75-1 cell proliferation assay (CellTiter-Glo). It is filed as cell-based. The conditions noted are these: Homo sapiens, ZR-75-1, 240 h, total culture period of 10 days, read-out: ZR-75-1 Proliferation Inhibition IC50. How it is done:
II. ZR-75-1 cell proliferation assay
• 1. ZR-75-1 cells were seeded in 96-well plates and cultured overnight in an incubator at 37°C & 5% CO2. • 2. Compounds were diluted using culture medium and added to the 96-well plates. The plates were placed back into the incubator for continued culture. Every 5 days, the cells were trypsinized, counted, and re-seeded. After the cells had fully adhered, compounds were added again for incubation, for a total culture period of 10 days. • 3. After the culture period, 60 µL of CellTiter-Glo reagent (Promega, G7573) was added to each well. The plates were protected from light and shaken for 2 minutes to lyse the cells, followed by further incubation at room temperature, protected from light, for 30 minutes. • 4. Luminescence signals were read using a BMG PHERAstar FSX. IC50 values were calculated by nonlinear regression using a four-parameter logistic equation in GraphPad Prism 8 software.

Another experiment addresses T1, KAT6B (Homo sapiens, UniProt Q8WYB5).
T1 construct: purchased Active Motif 81224
As to the kind of experiment: KATs acetyltransferase enzyme activity assay (TR-FRET), KAT6B. Type of experiment: biochemical. The conditions noted are these: Biotin-H3 (1-21) and AcCOA, 90 minutes at room temperature. On the procedure:
(§1) I. KATs acetyltransferase enzyme activity assay
(§2) • 1. The inhibitory effect of compounds on the acetyltransferase activity of KATs was evaluated using the Time-Resolved Fluorescence Resonance Energy Transfer (TR-FRET) assay. The assay was conducted in 384-well plates using Tris-HCl buffer. • 2. Compounds were diluted in DMSO and transferred to 384-well plates. Enzyme solutions (KAT6: active motif (kit), 81223; KAT6B: active motif, 81224; KAT5: SignalChem, K314-380G; KAT7: ICE, S2210F-H21HF; KAT8: Active motif, 81225) were added and the mixture was incubated at room temperature for 15 minutes. • 3. Subsequently, 2.5 µL of a mixture containing KAT6A/KAT6B: Biotin-H3 (1-21, Genscript, C6829GL060) or KAT5/7/8: Bio-H4 (1-25, Genscript, C736BGL100) AcCOA (Sigma, A2056) was added, and the reaction proceeded at room temperature for 90 minutes. • 4. After the reaction, a detection mixture containing Europium-anti-acetyl-Histone H4 Lysine (H4Kac pan) Antibody (Perkin Elmer, TRF0412) and LANCE Ultra ULight™-Streptavidin in LANCE™ Detection buffer (10x) (Perkin Elmer, CR97-100) was added, followed by incubation at room temperature for 60 minutes. • 5. HTRF signals were measured using a BMG PHERAstar FSX (Ratio: 665nm/620nm). IC50 values were calculated by nonlinear regression using a four-parameter logistic equation in GraphPad Prism 8 software.

The next experiment concerns the target T2, KAT6A (Homo sapiens, UniProt Q92794).
T2 construct: purchased Active Motif 81223
Kind of experiment: KATs acetyltransferase enzyme activity assay (TR-FRET), KAT6A. Type of experiment: biochemical. The conditions noted are these: Biotin-H3 (1-21) and AcCOA, 90 minutes at room temperature. How it is done:
as §1
as §2, with “Enzyme solutions (KAT6: active motif (kit), 81223; KAT6B: active motif, 81224; KAT5: SignalChem, K314-380G; KAT7: ICE, S2210F-H21HF; KAT8: Active motif, 81225) were added and the mixture was incubated at room temperature for 15 minutes. • 3.” left out, “HTRF signals were measured using a BMG PHERAstar FSX (Ratio: 665nm/620nm).” left out
(In general: Time-resolved FRET reads energy transfer from a long-lived donor to a nearby acceptor.)

In experiment [1] the test system is ZR-75-1 H3K23 Acetylation. Kind of experiment: Histone H3 acetylation assay (H3K23 acetylation in ZR-75-1 cells). Type of experiment: cell-based. The conditions noted are these: Homo sapiens, 72 hours incubation, Odyssey CLx fluorescence, read-out: ZR-75-1 H3K23 Acetylation Inhibition IC50. On the procedure: III. Histone H3 acetylation assay
• 1. ZR-75-1 cells were seeded at 5000 cells/40 µL per well in 384-well plates and cultured overnight in an incubator at 37°C & 5% CO2. • 2. 40 nL of serially diluted compounds were added to the 384-well plates, followed by further incubation for 72 hours. • 3. The supernatant was discarded, and 8 w/v% paraformaldehyde (final concentration was 4 w/v%) was added directly to the wells to fix the cells at room temperature. • 4. After washing twice with PBS, a permeabilization agent (40 µL of methanol) was added and incubated for 10 minutes to permeabilize the cell membranes. • 5. After washing twice with PBS, a blocking buffer was added and incubated at room temperature for 1 hour for blocking. • 6. The blocking buffer was discarded, and 20 µL of primary antibodies (recombinant Anti-Histone H3 (acetyl K23) antibody and Anti-Histone H4 antibody) diluted in blocking buffer (1:1000 by volume dilution) were added, followed by incubation at 4°C overnight. • 7. After washing three times with PBST (0.05 vol% Tween-20 in PBS), 20 µL of fluorescent secondary antibodies (IRDye 680RD Goat anti-MOUSE, Licor, 926-68070; IRDye 800CW Goat anti-Rabbit, Licor, 926-32211) diluted in blocking buffer (1:2000 by volume dilution) were added, followed by incubation at room temperature, protected from light, for 1 hour. Then, the plates were washed three times with PBST. • 8. Scanning was performed using an Odyssey CLx, and the fluorescence signal value for each well was quantified. IC50 values were calculated by nonlinear regression using a four-parameter logistic equation in GraphPad Prism 8 software.

T1 sequence (Q8WYB5 whole entry): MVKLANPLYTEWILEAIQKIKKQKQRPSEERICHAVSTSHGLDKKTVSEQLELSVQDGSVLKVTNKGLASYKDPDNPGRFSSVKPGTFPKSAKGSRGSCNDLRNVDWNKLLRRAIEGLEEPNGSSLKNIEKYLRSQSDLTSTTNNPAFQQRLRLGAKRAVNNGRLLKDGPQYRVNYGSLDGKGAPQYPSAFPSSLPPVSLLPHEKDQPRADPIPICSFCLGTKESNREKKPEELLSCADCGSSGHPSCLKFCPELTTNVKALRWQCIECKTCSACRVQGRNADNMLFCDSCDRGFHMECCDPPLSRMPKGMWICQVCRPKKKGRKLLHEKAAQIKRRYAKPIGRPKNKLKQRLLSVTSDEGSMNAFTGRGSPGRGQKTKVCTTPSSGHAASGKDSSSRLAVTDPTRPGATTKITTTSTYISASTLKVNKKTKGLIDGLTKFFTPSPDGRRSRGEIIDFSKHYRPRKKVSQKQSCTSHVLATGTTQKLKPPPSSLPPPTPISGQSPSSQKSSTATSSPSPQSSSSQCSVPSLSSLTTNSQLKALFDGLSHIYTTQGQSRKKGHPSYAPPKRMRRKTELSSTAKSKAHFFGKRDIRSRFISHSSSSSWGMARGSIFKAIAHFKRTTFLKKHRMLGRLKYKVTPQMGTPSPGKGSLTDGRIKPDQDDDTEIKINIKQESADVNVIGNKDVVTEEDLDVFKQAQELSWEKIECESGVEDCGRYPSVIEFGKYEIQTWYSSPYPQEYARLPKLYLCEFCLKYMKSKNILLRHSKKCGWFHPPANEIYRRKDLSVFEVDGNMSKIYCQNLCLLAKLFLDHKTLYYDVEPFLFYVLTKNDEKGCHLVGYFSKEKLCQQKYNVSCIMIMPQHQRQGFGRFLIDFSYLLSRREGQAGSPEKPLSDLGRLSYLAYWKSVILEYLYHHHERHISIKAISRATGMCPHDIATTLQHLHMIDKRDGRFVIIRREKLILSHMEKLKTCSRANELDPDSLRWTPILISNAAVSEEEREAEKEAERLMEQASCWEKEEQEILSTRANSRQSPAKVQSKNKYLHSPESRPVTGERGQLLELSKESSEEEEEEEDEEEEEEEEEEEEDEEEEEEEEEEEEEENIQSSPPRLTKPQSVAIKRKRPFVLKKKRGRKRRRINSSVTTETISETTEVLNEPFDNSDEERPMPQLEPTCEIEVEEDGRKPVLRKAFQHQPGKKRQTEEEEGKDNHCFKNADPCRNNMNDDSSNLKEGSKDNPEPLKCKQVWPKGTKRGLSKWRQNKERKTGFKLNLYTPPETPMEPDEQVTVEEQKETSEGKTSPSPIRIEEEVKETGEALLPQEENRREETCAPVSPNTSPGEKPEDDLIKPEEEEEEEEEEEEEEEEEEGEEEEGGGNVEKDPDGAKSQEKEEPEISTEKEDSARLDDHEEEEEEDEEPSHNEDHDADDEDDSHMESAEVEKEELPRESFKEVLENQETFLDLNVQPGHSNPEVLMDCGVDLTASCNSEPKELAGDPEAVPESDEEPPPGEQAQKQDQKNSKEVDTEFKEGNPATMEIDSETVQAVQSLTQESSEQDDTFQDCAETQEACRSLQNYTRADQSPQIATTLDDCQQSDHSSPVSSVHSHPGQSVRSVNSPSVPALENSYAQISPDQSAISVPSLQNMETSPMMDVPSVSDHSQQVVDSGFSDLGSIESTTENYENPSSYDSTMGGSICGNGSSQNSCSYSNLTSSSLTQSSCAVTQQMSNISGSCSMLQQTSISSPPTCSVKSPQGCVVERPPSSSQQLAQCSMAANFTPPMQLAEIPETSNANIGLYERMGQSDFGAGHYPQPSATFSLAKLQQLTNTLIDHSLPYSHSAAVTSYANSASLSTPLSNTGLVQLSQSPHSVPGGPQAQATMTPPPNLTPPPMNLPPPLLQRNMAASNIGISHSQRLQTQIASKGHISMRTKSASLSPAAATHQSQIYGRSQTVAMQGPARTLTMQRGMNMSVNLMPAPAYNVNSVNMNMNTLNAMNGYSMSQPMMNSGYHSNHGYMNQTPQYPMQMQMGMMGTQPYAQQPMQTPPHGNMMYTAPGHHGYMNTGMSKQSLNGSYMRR
T2 sequence (Q92794 488-778 limits assumed): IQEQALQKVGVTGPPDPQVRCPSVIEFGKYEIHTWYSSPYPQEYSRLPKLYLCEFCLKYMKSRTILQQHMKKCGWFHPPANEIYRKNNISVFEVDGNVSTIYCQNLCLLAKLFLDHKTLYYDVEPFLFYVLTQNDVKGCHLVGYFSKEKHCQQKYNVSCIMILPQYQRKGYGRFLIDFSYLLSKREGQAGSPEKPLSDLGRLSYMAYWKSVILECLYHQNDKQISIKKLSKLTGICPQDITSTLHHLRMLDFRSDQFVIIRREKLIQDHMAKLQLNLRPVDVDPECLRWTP

`COc1cc2c(cc1S(=O)(=O)Nc1noc3cc(Cn4cccn4)cc(OC)c13)OCCOC2` [Compound 8]: the IC50 in the experiment on ZR-75-1 cells turned out to be 4.2 nM; against KAT6B it was 40.8 nM; against KAT6A, 2.7 nM; in experiment [1] it was 10.3 nM.

For `COc1ccc2c(c1S(=O)(=O)Nc1noc3cc(Cn4cccn4)c(F)c(OC)c13)OCC1CC21` (stereo not shown) [Compound 30, N-(6-((1H-Pyrazol-1-yl)methyl)-5-fluoro-4-methoxybenzo[d]isoxazol-3-yl)-5-methoxy-1,1a,2,7b-tetrahydrocyclopropa[c]chromene-4-sulfonamide], the IC50 was found to be 0.15 nM in the experiment on ZR-75-1 cells, 1.8 nM on KAT6B, 0.8 nM against KAT6A and 0.8 nM in experiment [1].

Regarding `COc1cc2c(cc1S(=O)(=O)Nc1noc3cc(Cn4cccn4)cc(OC)c13)OCCCO2` [Compound 7, N-(6-((1H-Pyrazol-1-yl)methyl)-4-methoxybenzo[d]isoxazol-3-yl)-8-methoxy-3,4-dihyd ro-2H-benzo[b][1,4]dioxepine-7-sulfonamide], the IC50 in the experiment with ZR-75-1 cells was determined as 2.4 nM; against KAT6B, 19.2 nM; at KAT6A, 2.7 nM; in experiment [1], 8.6 nM.

With `COc1cc2c(NS(=O)(=O)c3c(OC)ccc4c3OCCCO4)noc2cc1Cn1cccn1` [Compound 15, N-(6-((1H-Pyrazol-1-yl)methyl)-5-methoxybenzo[d]isoxazol-3-yl)-7-methoxy-3,4-dihyd ro-2H-benzo[b][1,4] dioxepine-6-sulfonamide], the IC50 in the experiment on ZR-75-1 cells worked out at 0.6 nM; at KAT6B, 9.3 nM; against KAT6A, 1.7 nM; in experiment [1], 1.1 nM.

Regarding `COc1ccc2c(c1S(=O)(=O)Nc1noc3cc(Cn4cccn4)c(C4CC4)cc13)OCCCO2` [Compound 14, N-(6-((1H-Pyrazol-1-yl)methyl)-5-cyclopropylbenzo[d]isoxazol-3-yl)-7-methoxy-3,4-di hydro-2H-benzo[b][1,4]dioxepine-6-sulfonamide], the IC50 stood at 8.6 nM with ZR-75-1 cells, 12.7 nM on KAT6B, 1.4 nM at KAT6A and 11.5 nM in experiment [1].

For `COc1cc(Cn2cccn2)cc2onc(NS(=O)(=O)c3cccc4c3OCCCO4)c12` [Compound 1, N-(6-((1H-Pyrazol-1-yl)methyl)-4-methoxybenzo[d]isoxazol-3-yl)-3,4-dihydro-2H-benz o[b] [1,4]dioxepine-6-sulfonamide], the IC50 in the experiment with ZR-75-1 cells came to 6.7 nM; against KAT6B, 81.7 nM; against KAT6A it was 12.9 nM; in experiment [1], 9 nM.

For the compound `COc1cc2c(NS(=O)(=O)c3c(OC)ccc4c3OCC3CC43)noc2cc1Cn1cccn1` (single isomer, unassigned) [Compound 33], the IC50 in the experiment on ZR-75-1 cells was found to be 0.03 nM; on KAT6B, 1.2 nM; against KAT6A it was 1.1 nM; in experiment [1] it was 0.2 nM.

For `COc1ccc2c(c1S(=O)(=O)Nc1noc3cc(Cn4cccn4)c4c(c13)OCC4)OCC21CC1` [Compound 36, N-(4-((1H-Pyrazol-1-yl)methyl)-2,3-dihydrobenzofuro[7,6-d]isoxazol-8-yl)-6-methoxy-2H-spiro[benzofuran-3,1'-cyclopropane]-7-sulfonamide], the IC50 in the experiment on ZR-75-1 cells came to 0.4 nM; at KAT6B, 8 nM; at KAT6A, 1.7 nM; in experiment [1], 3.7 nM.

Consider `COc1ccc2c(c1S(=O)(=O)Nc1noc3cc(Cn4cccn4)cc(OC)c13)OCCCN2C` [Compound 41, N-(6-((1H-Pyrazol-1-yl)methyl)-4-methoxybenzo[d]isoxazol-3-yl)-8-methoxy-5-methyl-2,3,4,5-tetrahydrobenzo[b][1,4]oxazepine-9-sulfonamide], for which the IC50 in the experiment with ZR-75-1 cells stood at 4.8 nM; against KAT6B it was 97.5 nM; at KAT6A it was 8.9 nM; in experiment [1], 20.2 nM.

For the compound `COc1ccc2c(c1S(=O)(=O)Nc1noc3cc(Cn4cccn4)c(OC)c(C)c13)OCC21CC1` [Compound 39, N-(6-((1H-Pyrazol-1-yl)methyl)-5-methoxy-4-methylbenzo[d]isoxazol-3-yl)-6-methoxy-2H-spiro[benzofuran-3,1'-cyclopropane]-7-sulfonamide], the IC50 in the experiment with ZR-75-1 cells came out at 2.6 nM; at KAT6B, 37.6 nM; against KAT6A, 2.2 nM; in experiment [1], 23.7 nM.

For `COc1cc2c(cc1S(=O)(=O)Nc1noc3cc(Cn4cccn4)cc(OC)c13)C1CC1CO2` (stereo not shown) [Compound 6, N-(6-((1H-Pyrazol-1-yl)methyl)-4-methoxybenzo[d]isoxazol-3-yl)-5-methoxy-1,1a,2,7b-tetrahydrocyclopropa[c] chromene-6-sulfonamide], the IC50 came to 0.6 nM with ZR-75-1 cells, 11.8 nM at KAT6B, 1.3 nM against KAT6A and 5.3 nM in experiment [1].

Take `COc1ccc2c(c1S(=O)(=O)Nc1noc3cc(Cn4cccn4)cc(OC)c13)OCC21COC1` [Compound 49, N-(6-((1H-Pyrazol-1-yl)methyl)-4-methoxybenzo[d]isoxazol-3-yl)-6-methoxy-2H-spiro[benzofuran-3,3'-oxetane]-7-sulfonamide]: the figures for the IC50 (at KAT6B; on KAT6A; in experiment [1]) were 23.1 nM, 3 nM and 4.2 nM, respectively.

Consider `COc1ccc2c(c1S(=O)(=O)Nc1noc3cc(Cn4cccn4)cc(OC)c13)OC1CC1O2` (stereo not shown) [Compound 50, N-(6-((1H-Pyrazol-1-yl)methyl)-4-methoxybenzo[d]isoxazol-3-yl)-4-methoxy-1a,7a-dihydro-1H-benzo[b]cyclopropa[e][1,4]dioxine-3-sulfonamide], for which the results for the IC50 (on KAT6B; at KAT6A; in experiment [1]) were 51.6 nM, 6.8 nM and 6.5 nM, respectively.

On to `COc1ccc2c(c1S(=O)(=O)Nc1noc3cc(Oc4ccccn4)cc(OC)c13)OC[C@@H]1C[C@H]21` [Compound 48, (1aR,7bS)-5-Methoxy-N-(4-methoxy-6-(pyridin-2-yloxy)benzo[d]isoxazol-3-yl)-1,1a,2,7 b-tetrahydrocyclopropa [c] chromene-4-sulfonamide], for which the IC50 on KAT6B was determined as 15.6 nM; on KAT6A, 1.7 nM; in experiment [1] it was 17.9 nM.

`COc1ccc2c(c1S(=O)(=O)Nc1noc3cc(Cn4cccn4)c(OC(F)F)cc13)OCCCO2` [Compound 13, N-(6-((1H-pyrazol-1-yl)methyl)-5-(difluoromethoxy)benzo[d]isoxazol-3-yl)-7-methoxy-3,4-dihydro-2H-benzo [b] [1,4] dioxepine-6-sulfonamide]: the IC50 in the experiment on ZR-75-1 cells was 14.2 nM; in experiment [1], 34.3 nM.
